The text below walks through data of US20130252816A1, “HERBICIDAL COMPOSITION AND USE THEREOF” (Syngenta Crop Protection LLC, priority 2010, published 2013).

The first assay relates to Stellaria media. The experiment in a line: Example 1: adjuvants alone, visual % damage, pots in glasshouse. Type of assay: in vivo. The note with it: adjuvant 1.25% w/v. As to the method:
(§1) The effect of different adjuvants (see Table 1 below) on the growth of broadleaf weed and grass species was investigated and compared to untreated (water only) control weeds.
(§2) Plates, each with 48 pots measuring 2.7 cm diameter and 5 cm deep, were filled with TKS1 growing media (Floragard, Germany). Seeds of Taraxacum officinale, Stellaria media or Poa annua were sown on the surface (10 to 20 per pot). Plants were grown in glasshouse at a temperature of 18 to 20° C. and at 60% relative humidity.
(§3) Plants were treated 15 (Stellaria, Poa) and 34 (Taraxacum) days after sowing with 60 μl of a 1.25, 2.5, 5 and 10% (w/v) solution of adjuvant using a hand airbrush.
(§4) Visual assessment of the percentage damage to the plant was carried out 1 day and 6 days from application.
(§5) Damage was assessed as wilting, desiccation or any other kind of visual injury in comparison to the untreated control (water only).
For “Oleyl alcohol polyglycol ether with 10 moles of ethoxylation [GenapolO100]”, the “avg % damage 1 DAA Stellaria media” value is given as 0% and the “avg % damage 6 DAA Stellaria media” value turned out to be 5%.

As for “Tri-sec-butylphenol polyglycol ether with 6 Moles of ethoxylation [SAPOGENAT T 060]”, the “avg % damage 1 DAA Stellaria media” value is reported as 0% and the “avg % damage 6 DAA Stellaria media” value was 0%.

Regarding “Oleyl alcohol polyglycol ether with 15 moles of ethoxylation [GenapolO150]”, the “avg % damage 1 DAA Stellaria media” value amounted to 0% and the “avg % damage 6 DAA Stellaria media” value is reported as 5%.

Consider “Oleyl alcohol polyglycol ether with 20 moles of ethoxylation [GenapolO200]”, for which the “avg % damage 1 DAA Stellaria media” value was found to be 0% and the “avg % damage 6 DAA Stellaria media” value is reported as 0%.

Staying with this assay, now noted: adjuvant 2.5% w/v.
“Oleyl alcohol polyglycol ether with 10 moles of ethoxylation [GenapolO100]”: the “avg % damage 1 DAA Stellaria media” value came out at 5% and the “avg % damage 6 DAA Stellaria media” value was 10%.

On to “Tri-sec-butylphenol polyglycol ether with 6 Moles of ethoxylation [SAPOGENAT T 060]”, for which the “avg % damage 1 DAA Stellaria media” value was found to be 0% and the “avg % damage 6 DAA Stellaria media” value is on record as 0%.

With “Oleyl alcohol polyglycol ether with 15 moles of ethoxylation [GenapolO150]”, the “avg % damage 1 DAA Stellaria media” value was 0% and the “avg % damage 6 DAA Stellaria media” value is given as 20%.

For the substance “Oleyl alcohol polyglycol ether with 20 moles of ethoxylation [GenapolO200]”, the “avg % damage 1 DAA Stellaria media” value was 0% and the “avg % damage 6 DAA Stellaria media” value is recorded as 5%.

Still in this assay, the particulars now being: adjuvant 5% w/v.
On to “Oleyl alcohol polyglycol ether with 10 moles of ethoxylation [GenapolO100]”, for which the “avg % damage 1 DAA Stellaria media” value stood at 15% and the “avg % damage 6 DAA Stellaria media” value is on record as 30%.

In the case of “Tri-sec-butylphenol polyglycol ether with 6 Moles of ethoxylation [SAPOGENAT T 060]”, the “avg % damage 1 DAA Stellaria media” value is reported as 0% and the “avg % damage 6 DAA Stellaria media” value is 20%.

As to “Oleyl alcohol polyglycol ether with 15 moles of ethoxylation [GenapolO150]”, the “avg % damage 1 DAA Stellaria media” value came to 13% and the “avg % damage 6 DAA Stellaria media” value is recorded as 30%.

On to “Oleyl alcohol polyglycol ether with 20 moles of ethoxylation [GenapolO200]”, for which the “avg % damage 1 DAA Stellaria media” value came out at 0% and the “avg % damage 6 DAA Stellaria media” value amounted to 5%.

The same assay, now with this note: adjuvant 10% w/v.
As for “Oleyl alcohol polyglycol ether with 10 moles of ethoxylation [GenapolO100]”, the “avg % damage 1 DAA Stellaria media” value came out at 50% and the “avg % damage 6 DAA Stellaria media” value was 55%.

For the substance “Tri-sec-butylphenol polyglycol ether with 6 Moles of ethoxylation [SAPOGENAT T 060]”, the “avg % damage 1 DAA Stellaria media” value stood at 0% and the “avg % damage 6 DAA Stellaria media” value was found to be 20%.

Take “Oleyl alcohol polyglycol ether with 15 moles of ethoxylation [GenapolO150]”: the “avg % damage 1 DAA Stellaria media” value is 43% and the “avg % damage 6 DAA Stellaria media” value is reported as 60%.

On to “Oleyl alcohol polyglycol ether with 20 moles of ethoxylation [GenapolO200]”, for which the “avg % damage 1 DAA Stellaria media” value worked out at 15% and the “avg % damage 6 DAA Stellaria media” value came to 30%.

Another assay concerns Poa annua. Described as above. Type of assay: in vivo. The settings on record: adjuvant 1.25% w/v. As to the method:
as §1, §2, §3, §4, §5
As for “Oleyl alcohol polyglycol ether with 10 moles of ethoxylation [GenapolO100]”, the “avg % damage 1 DAA Poa annua” value is reported as 0% and the “avg % damage 6 DAA Poa annua” value was 5%.

With “Tri-sec-butylphenol polyglycol ether with 6 Moles of ethoxylation [SAPOGENAT T 060]”, the “avg % damage 1 DAA Poa annua” value was 0% and the “avg % damage 6 DAA Poa annua” value is 5%.

On to “Oleyl alcohol polyglycol ether with 15 moles of ethoxylation [GenapolO150]”, for which the “avg % damage 1 DAA Poa annua” value is reported as 0% and the “avg % damage 6 DAA Poa annua” value is 0%.

For the substance “Oleyl alcohol polyglycol ether with 20 moles of ethoxylation [GenapolO200]”, the “avg % damage 1 DAA Poa annua” value is recorded as 0% and the “avg % damage 6 DAA Poa annua” value is reported as 0%.

The assay is the same for the next values; noted with them: adjuvant 2.5% w/v.
Take “Oleyl alcohol polyglycol ether with 10 moles of ethoxylation [GenapolO100]”: the “avg % damage 1 DAA Poa annua” value came out at 0% and the “avg % damage 6 DAA Poa annua” value is 10%.

For “Tri-sec-butylphenol polyglycol ether with 6 Moles of ethoxylation [SAPOGENAT T 060]”, the “avg % damage 1 DAA Poa annua” value was 0% and the “avg % damage 6 DAA Poa annua” value was 5%.

With “Oleyl alcohol polyglycol ether with 15 moles of ethoxylation [GenapolO150]”, the “avg % damage 1 DAA Poa annua” value stood at 0% and the “avg % damage 6 DAA Poa annua” value was 0%.

As for “Oleyl alcohol polyglycol ether with 20 moles of ethoxylation [GenapolO200]”, the “avg % damage 1 DAA Poa annua” value is reported as 0% and the “avg % damage 6 DAA Poa annua” value is 0%.

Still in this assay, the particulars now being: adjuvant 5% w/v.
For “Oleyl alcohol polyglycol ether with 10 moles of ethoxylation [GenapolO100]”, the “avg % damage 1 DAA Poa annua” value stood at 0% and the “avg % damage 6 DAA Poa annua” value is on record as 10%.

With “Tri-sec-butylphenol polyglycol ether with 6 Moles of ethoxylation [SAPOGENAT T 060]”, the “avg % damage 1 DAA Poa annua” value stood at 0% and the “avg % damage 6 DAA Poa annua” value is on record as 25%.

“Oleyl alcohol polyglycol ether with 15 moles of ethoxylation [GenapolO150]”: the “avg % damage 1 DAA Poa annua” value was determined as 0% and the “avg % damage 6 DAA Poa annua” value is given as 0%.

Regarding “Oleyl alcohol polyglycol ether with 20 moles of ethoxylation [GenapolO200]”, the “avg % damage 1 DAA Poa annua” value was determined as 0% and the “avg % damage 6 DAA Poa annua” value is listed as 0%.

Still in this assay, the particulars now being: adjuvant 10% w/v.
Consider “Oleyl alcohol polyglycol ether with 10 moles of ethoxylation [GenapolO100]”, for which the “avg % damage 1 DAA Poa annua” value is given as 0% and the “avg % damage 6 DAA Poa annua” value is recorded as 10%.

As for “Tri-sec-butylphenol polyglycol ether with 6 Moles of ethoxylation [SAPOGENAT T 060]”, the “avg % damage 1 DAA Poa annua” value is 0% and the “avg % damage 6 DAA Poa annua” value was determined as 35%.

On to “Oleyl alcohol polyglycol ether with 15 moles of ethoxylation [GenapolO150]”, for which the “avg % damage 1 DAA Poa annua” value was 0% and the “avg % damage 6 DAA Poa annua” value stood at 0%.

On to “Oleyl alcohol polyglycol ether with 20 moles of ethoxylation [GenapolO200]”, for which the “avg % damage 1 DAA Poa annua” value stood at 0% and the “avg % damage 6 DAA Poa annua” value was 0%.

The next assay relates to Taraxacum officinale. The assay is described as above. It is filed as in vivo. The note with it: adjuvant 1.25% w/v. Here is the method: as §1, §2, §3, §4, §5
“Oleyl alcohol polyglycol ether with 10 moles of ethoxylation [GenapolO100]”: the “avg % damage 1 DAA Taraxacum officinale” value was 0% and the “avg % damage 6 DAA Taraxacum officinale” value was found to be 0%.

As for “Tri-sec-butylphenol polyglycol ether with 6 Moles of ethoxylation [SAPOGENAT T 060]”, the “avg % damage 1 DAA Taraxacum officinale” value is 0% and the “avg % damage 6 DAA Taraxacum officinale” value turned out to be 0%.

On to “Oleyl alcohol polyglycol ether with 15 moles of ethoxylation [GenapolO150]”, for which the “avg % damage 1 DAA Taraxacum officinale” value came out at 0% and the “avg % damage 6 DAA Taraxacum officinale” value worked out at 3%.

Turning to “Oleyl alcohol polyglycol ether with 20 moles of ethoxylation [GenapolO200]”, the “avg % damage 1 DAA Taraxacum officinale” value was 0% and the “avg % damage 6 DAA Taraxacum officinale” value was determined as 3%.

Still in this assay, the particulars now being: adjuvant 2.5% w/v.
Turning to “Oleyl alcohol polyglycol ether with 10 moles of ethoxylation [GenapolO100]”, the “avg % damage 1 DAA Taraxacum officinale” value was 5% and the “avg % damage 6 DAA Taraxacum officinale” value is listed as 0%.

For the substance “Tri-sec-butylphenol polyglycol ether with 6 Moles of ethoxylation [SAPOGENAT T 060]”, the “avg % damage 1 DAA Taraxacum officinale” value came out at 0% and the “avg % damage 6 DAA Taraxacum officinale” value was determined as 0%.

For “Oleyl alcohol polyglycol ether with 15 moles of ethoxylation [GenapolO150]”, the “avg % damage 1 DAA Taraxacum officinale” value is reported as 0% and the “avg % damage 6 DAA Taraxacum officinale” value came out at 0%.

With “Oleyl alcohol polyglycol ether with 20 moles of ethoxylation [GenapolO200]”, the “avg % damage 1 DAA Taraxacum officinale” value worked out at 0% and the “avg % damage 6 DAA Taraxacum officinale” value was 0%.

The assay is the same for the next values; noted with them: adjuvant 5% w/v.
Take “Oleyl alcohol polyglycol ether with 10 moles of ethoxylation [GenapolO100]”: the “avg % damage 1 DAA Taraxacum officinale” value worked out at 5% and the “avg % damage 6 DAA Taraxacum officinale” value came out at 0%.

As to “Tri-sec-butylphenol polyglycol ether with 6 Moles of ethoxylation [SAPOGENAT T 060]”, the “avg % damage 1 DAA Taraxacum officinale” value is given as 0% and the “avg % damage 6 DAA Taraxacum officinale” value was 0%.

“Oleyl alcohol polyglycol ether with 15 moles of ethoxylation [GenapolO150]”: the “avg % damage 1 DAA Taraxacum officinale” value turned out to be 5% and the “avg % damage 6 DAA Taraxacum officinale” value was determined as 3%.

Regarding “Oleyl alcohol polyglycol ether with 20 moles of ethoxylation [GenapolO200]”, the “avg % damage 1 DAA Taraxacum officinale” value stood at 0% and the “avg % damage 6 DAA Taraxacum officinale” value was determined as 5%.

Still in this assay, the particulars now being: adjuvant 10% w/v.
“Oleyl alcohol polyglycol ether with 10 moles of ethoxylation [GenapolO100]”: the “avg % damage 1 DAA Taraxacum officinale” value was 5% and the “avg % damage 6 DAA Taraxacum officinale” value is given as 0%.

As for “Tri-sec-butylphenol polyglycol ether with 6 Moles of ethoxylation [SAPOGENAT T 060]”, the “avg % damage 1 DAA Taraxacum officinale” value came out at 0% and the “avg % damage 6 DAA Taraxacum officinale” value amounted to 0%.

Consider “Oleyl alcohol polyglycol ether with 15 moles of ethoxylation [GenapolO150]”, for which the “avg % damage 1 DAA Taraxacum officinale” value came out at 5% and the “avg % damage 6 DAA Taraxacum officinale” value was 3%.

Regarding “Oleyl alcohol polyglycol ether with 20 moles of ethoxylation [GenapolO200]”, the “avg % damage 1 DAA Taraxacum officinale” value was 10% and the “avg % damage 6 DAA Taraxacum officinale” value was 0%.
